# Assay results: patent EP1379634B1 (THE UNIVERSITY OF GEORGIA RESEARCH FOUNDATION, INC., priority 2001, dated 2002)
# Residues, ends and D or L forms follow the SMILES beside them. *: point of attachment. AFC = O=c1cc(C(F)(F)F)c2ccc(N*)cc2o1; MeOSuc = COC(=O)CCC(=O)*; Cbz = O=C(OCc1ccccc1)*; Boc = CC(C)(C)OC(=O)*
# Legend:
# [1] = tested on: purified Taenia solium cysteine protease; assay: Substrate cleavage screen of AFC-linked peptides (Step II), purified protease; type: biochemical; conditions: 0.4 M Citrate, pH 4.9, 0.01 M cysteine, 18 h, 37 °C
# Description: In this step, the most efficacious substrate for detection of the cysteine protease (high Kcat substrate) was determined in vitro along with those substrates which were not well cleaved (low kcat substrates). From this point forward, the following conditions refer to all assays: "assay buffer" refers to 0.4 M Citrate, pH 4.9 (the pH optima of the protease). Incubation time was 18 hours at 37°C. These conditions were determined by our preliminary data to be best for kinetic evaluation of the protease. […] The experiments were conducted in 6X50 […] Borosilicate mini-culture tubes (Fisher Scientific), and a fluorometer (Turner) was employed for detection of AFC cleavage.
# Since the full 8,420 amino acid possibilities for cleavage were not available, representative substrates were employed. […] In order to choose this subset, representative amino acids (i.e., selected from the categories of acidic, basic, nonpolar, uncharged) were chosen so as to create as many categories of motifs as feasible for the P3-P1 positions with a set of 67 small peptides (see lists at Fig. 4a and Fig. 4b). The target cysteine protease from Taenia solium was isolated using the purification methods described previously in the patent WO 00/63350.
# Approximately 1 ug (or a proteolytically detectable amount) of the purified target cysteine protease was incubated individually, with 1 ug of each of the available substrates in 500 uL of assay buffer. During this setup, the substrate was pre-incubated in the assay buffer for a short period of time (20 minutes) in order to reach an equilibrated status before the addition of the protease. Cleavage assessments were based upon the property of the protease to cleave synthetic peptide substrates linked at the C-terminus to 7-Amino-4-Trifluoromethyl Coumarin (AFC) as previously described. AFC linked tripeptides, dipeptides, and monopeptides, (with a variety of permutations at P3-P1) were available from Enzyme Systems Products (Livermore, CA), and were used as the source of the subset. Following incubation of enzyme preparations overnight (18 h, 37 °C) with peptide in assay buffer (Citrate, pH 4.9, supplemented with 0.01 M cysteine), free AFC concentrations were measured fluorometrically (excitation 405 nm, emission 505 nm). The proteolytic cleavage released the AFC group, which was measurable as a free molecule by a standard fluorometer and converted into molar quantities, based upon a previously established standard curve. The simplicity of AFC detection by the fluorometer was a key factor which expedited and simplified the procedures.
# In the assay, 1 ug of the purified Taenia cysteine protease was added to a saturating amount of Z-Phe-Arg-AFC (4X10^-5 M) in assay buffer. The experiment was conducted in triplicate and repeated at least 5 times until we were certain that variability in AFC cleavage was not statistically significant.
# Vmax for the cleavage of substrates by the purified target protease and Vmax for substrates cleaved by the crude mix protease were each calculated using conventional kinetic modeling calculations already described in the art.
# [2] = tested on: purified Taenia solium cysteine protease; assay: Competitor assay of low Vmax substrates (vehicles) against high Vmax substrate cocktails (Step III), purified protease; type: biochemical; conditions: vehicle 8X10^-6 M; for inhibition with the final cocktail (7.4%): 7.4% cocktail (five high Vmax substrates, 1X10^-6 M each); for V Value: V = P * M, P inhibition with first (1.4%) cocktail, M with last (7.4%) cocktail, each cocktail substrate 1X10^-6 M; for inhibition with the 1.4% cocktail: 1.4% cocktail (Z-FR-AFC 1X10^-6 M)
# Description: The top 1.4% of substrates (out of 67) in the full panel of substrates with the highest Vmax values were chosen to compose a "TOP 1.4% cocktail". (We employed "Vmax" here although Kcat could also be used). Due to the lower number of substrates, a percentage was not chosen for the "BOTTOM %" substrates. Alternately, all substrates which were not cleaved as determined by a value of 10 uM/hr or less, were chosen to be tested in this step for competitive ability. Hereinafter the term "vehicle" will represent low Vmax substrates that were capable of inhibiting cleavage of the percent cocktails. In this instance, we tested for "vehicles" which inhibited cleavage of the TOP 1.4% cocktail (they were delivered into the active site). Based upon our results from Step II, the top 1.4% cocktail was composed of Z-Phe-Arg-AFC, the highest cleaved substrate.
# The experiment began with a competitor test between the noncleaved low Vmax substrates and the highest Vmax substrate, Z-Phe-Arg-AFC. Concentrations were varied between the low Vmax substrate and Z-Phe-Arg-AFC, as described above under "refinement of assay" until a relative inhibition profile was obtained.
# The mixture was allowed to equilibrate for a period of 30 minutes. Finally, active purified enzyme was added to the tubes at a concentration that was always 50 times less than the concentration of the high and low Vmax substrates, respectively, in order to insure saturation conditions. This concentration varied from purification to purification and the amount added depended upon the yield and specific activity of the purified protease.
# Positive controls were set up in a manner similar to that described for test controls, except that solvent was added in substitution for the low Vmax substrate (in a volume equal to the low Vmax volume addition). All of the substrates could be dissolved in dimethylsulfoxide (DMSO), and therefore, this was the solvent of choice. Negative controls were set up by adding the low Vmax and the high Vmax substrate in a tube without the protease. All potential non-proteolytic induced liberation of AFC was therefore controlled for in this tube (a feature which also monitored stability of the AFC substrates, since these substrates will freely liberate AFC when unstable). A tube set was established for this negative control.
# All controls were set up in triplicate, and experiments were repeated a minimum of five times. The assays were incubated at 37°C, for 18 hours overnight.
# Percent inhibition was calculated as: %Inhibition = ((AFC positive for "Y"−AFC negative for "Y")−(AFC test−AFC negative for "Y"))/(AFC positive for "Y"−AFC negative for "Y") × 100 [formula]
# A 2.9% cocktail of the high Vmax substrates was made. This was composed of Z-FR-AFC and the second most cleaved substrate, Z-FAR-AFC. The vehicles promoted from the initial screenings above were again tested for competitive inhibition ability with the new cocktails. Their concentrations were set identically to those which were "fixed" in the previous protocols. In other words, 8X10^-6 M of the vehicle was added to the culture tube with 1X10^-6 M of Z-FR-AFC and 1X10^-6 M of Z-FAR-AFC. Active protease was added last at a concentration that was 50 times less than the concentration of the high Vmax substrate (to ensure saturating conditions).
# In similar experimental fashion, a 4.4%, 5.9%, and 7.4% cocktail were tested with each of the promising vehicles. Each increase in the percentage represented an increase by an additional high Vmax substrate. Each of the individual components in the cocktail were added at 1X10^-6 M each, to 8X10^-6 M of the vehicle. The composition of the cocktails was as follows: 4.4% cocktail: Z-FR-AFC, Z-FAR-AFC, and Z-AAK-AFC (third highest cleaved substrate); 5.9% cocktail: Z-FR-AFC, Z-FAR-AFC, Z-AAK-AFC, and AP-AFC (fourth highest cleaved substrate); 7.4% cocktail: […], Z-FAR-AFC, Z-AAK-AFC, AP-AFC, and Z-VLR-AFC. […]
# [3] = tested on: Taenia solium crude mix; assay: Competitor assay of vehicles against high Vmax substrate cocktails (Step III), crude mix; type: biochemical
# Source text: Step III for a crude mix proceeds as it would for a purified protease, except that Vm is used instead of kcat.
# One of the most intriguing findings in this experiment was that a highly similar inhibition pattern for the competitor assay resulted when the crude mix was employed as the source of the target protease. Although there were some variations in the effects of inhibitor dilution, the most highly ranked vehicles remained inhibitory consistently in comparison to the profile with the target protease. The relative profile and composition of the top tier of vehicles was identical. Z-LLL-AFC, Z-LLY-AFC, Mu-LY-AFC, Boc-VPR-AFC, Z-SY-AFC, Z-RR-AFC, Z-FLF-AFC, and Z-LGR-AFC consistently emerged as the top eight vehicles (Fig. 5b), respectively, based upon their V values (Table 2). […] It was notable that the three vehicles had very similar V values. […] As was mentioned, this vehicle along with Z-LLL-AFC and Z-LLY-AFC, were consistently the most inhibitory vehicles. The V values of the most inhibitory vehicle series are shown below in Table 2. Again, a clear break between the first and second tier vehicles is discernible for the V value. Table 2. Vehicles and V value rankings.
# [4] = tested on: BALB/c mice; assay: Observation of side effects in treated mice; type: in vivo; conditions: long-term studies
Molecule,cleavage of AFC substrate (Vmax) [1],inhibition with the final cocktail (7.4%) [2],Tier [3],further results
COC(=O)CCC(=O)N[C@@H](Cc1ccccc1)C(=O)N[C@@H](CC(C)C)C(=O)N[C@@H](Cc1ccccc1)C(=O)Nc1ccc2c(C(F)(F)F)cc(=O)oc2c1 [MeoSuc-FLF-AFC] (MeOSuc-Phe-Leu-Phe-{AFC}),not cleaved,–,–,–
"CC(C)[C@H](NC(=O)OC(C)(C)C)C(=O)N1CCC[C@H]1C(=O)N[C@@H](CCCNC(=N)N)C(=O)Nc1ccc2c(C(F)(F)F)cc(=O)oc2c1 [B-VPR-AFC, Boc-Val-Pro-Arg-AFC] (Boc-Val-Pro-Arg-{AFC})",noncleavable,less than 20%,2 (The second tier was composed of those vehicles that produced inhibition between 20-50% inhibition when in the presence of the 1.4% cocktail),V Value ([2]; listed as B-VPR-AC): 0.120
O=C(N[C@@H](CO)C(=O)N[C@@H](Cc1ccc(O)cc1)C(=O)Nc1ccc2c(C(F)(F)F)cc(=O)oc2c1)OCc1ccccc1 [Z-SY-AFC] (Cbz-Ser-Tyr-{AFC}),–,less than 20%,2 (The second tier was composed of those vehicles that produced inhibition between 20-50% inhibition when in the presence of the 1.4% cocktail),V Value [2]: 0.09; V Value ([3]; V = P * M): 0.09
N=C(N)NCCC[C@H](NC(=O)OCc1ccccc1)C(=O)N[C@@H](CCCNC(=N)N)C(=O)Nc1ccc2c(C(F)(F)F)cc(=O)oc2c1 [Z-RR-AFC] (Cbz-Arg-Arg-{AFC}),–,less than 20%,2 (The second tier was composed of those vehicles that produced inhibition between 20-50% inhibition when in the presence of the 1.4% cocktail),V Value [2]: 0.09
CC(C)C[C@H](NC(=O)OCc1ccccc1)C(=O)N[C@@H](CCCNC(=N)N)C(=O)N[C@@H](CCCNC(=N)N)C(=O)Nc1ccc2c(C(F)(F)F)cc(=O)oc2c1 [Z-LRR-AFC] (Cbz-Leu-Arg-Arg-{AFC}),–,–,–,inhibition with the 1.4% cocktail [2]: greater than 20%
CC(C)CC(NC(=O)OCc1ccccc1)C(=O)NC(C=CS(=O)(=O)c1ccccc1)Cc1ccccc1 (stereo not drawn),–,–,–,side effects in treated mice [4]: goiter and neurological problems
Cbz-Leu-Gly-Arg-{AFC} [Z-LGR-AFC],noncleavable,less than 20%,–,inhibition with the 1.4% cocktail [2]: greater than 20%
N[C@@H](CCC(=O)O)C(=O)N[C@@H](Cc1ccc(O)cc1)C(=O)Nc1ccc2c(C(F)(F)F)cc(=O)oc2c1 [EY-AFC] (H-Glu-Tyr-{AFC}),not cleaved,–,–,–
